Measured values from PubChem BioAssay (NCI).
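Five concentrations, 48 hours, 96-well plates. The concentration for full growth arrest is given as TGI.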

Experiments:
Assay in all cases: inhibition of tumour cell growth, NCI panel, 48 h
OVCAR-8 ovarian = tested on: OVCAR-8 ovarian
HS 578T breast = tested on: HS 578T breast
UACC-62 melanoma = tested on: UACC-62 melanoma
SF-295 CNS = tested on: SF-295 CNS
PC-3 prostate = tested on: PC-3 prostate
HOP-62 NSCLC = tested on: HOP-62 NSCLC
MDA-MB-231 breast = tested on: MDA-MB-231 breast
MOLT-4 leukemia = tested on: MOLT-4 leukemia
NCI-H226 lung = tested on: NCI-H226 lung
786-0 renal = tested on: 786-0 renal
A549 NSCLC = tested on: A549 NSCLC
RPMI-8226 leukemia = tested on: RPMI-8226 leukemia
SK-MEL-28 melanoma = tested on: SK-MEL-28 melanoma
RXF 393 renal = tested on: RXF 393 renal
MALME-3M melanoma = tested on: MALME-3M melanoma
SF-268 CNS = tested on: SF-268 CNS
SK-MEL-5 melanoma = tested on: SK-MEL-5 melanoma
OVCAR-4 ovarian = tested on: OVCAR-4 ovarian
CCRF-CEM leukemia = tested on: CCRF-CEM leukemia
SF-539 CNS = tested on: SF-539 CNS
SW-620 colon = tested on: SW-620 colon
NCI-H522 lung = tested on: NCI-H522 lung
IGROV1 ovarian = tested on: IGROV1 ovarian
DU-145 prostate = tested on: DU-145 prostate
HCC-2998 colon = tested on: HCC-2998 colon
SNB-75 CNS = tested on: SNB-75 CNS
KM12 colon = tested on: KM12 colon
COLO 205 colon = tested on: COLO 205 colon
SK-OV-3 ovarian = tested on: SK-OV-3 ovarian
T-47D breast = tested on: T-47D breast
OVCAR-5 ovarian = tested on: OVCAR-5 ovarian
MDA-MB-435 = tested on: MDA-MB-435
HT29 colon = tested on: HT29 colon
SNB-19 CNS = tested on: SNB-19 CNS
LOX IMVI melanoma = tested on: LOX IMVI melanoma
TK-10 renal = tested on: TK-10 renal
UO-31 renal = tested on: UO-31 renal
CAKI-1 renal = tested on: CAKI-1 renal
HCT-116 colon = tested on: HCT-116 colon
SN12C renal = tested on: SN12C renal
SR leukemia = tested on: SR leukemia
NCI-H23 lung = tested on: NCI-H23 lung
EKVX NSCLC = tested on: EKVX NSCLC
HOP-92 NSCLC = tested on: HOP-92 NSCLC
MCF7 breast = tested on: MCF7 breast
K-562 leukemia = tested on: K-562 leukemia
OVCAR-3 ovarian = tested on: OVCAR-3 ovarian
HL-60(TB) leukemia = tested on: HL-60(TB) leukemia
NCI-H460 lung = tested on: NCI-H460 lung
MDA-N = tested on: MDA-N
UACC-257 melanoma = tested on: UACC-257 melanoma
M14 melanoma = tested on: M14 melanoma
NCI/ADR-RES ovarian = tested on: NCI/ADR-RES ovarian
ACHN renal = tested on: ACHN renal
U251 CNS = tested on: U251 CNS
A498 renal = tested on: A498 renal
HCT-15 colon = tested on: HCT-15 colon
SK-MEL-2 melanoma = tested on: SK-MEL-2 melanoma

Measured: TGI

Cc1ccc(N/N=C/C2=CC(C)(C)C(C#N)(C#N)C(O)=C2C#N)cc1
69.5 µM: CAKI-1 renal
42.2 µM: HOP-92 NSCLC
58.7 µM: PC-3 prostate
85.2 µM: RXF 393 renal
91.2 µM: SR leukemia
58.1 µM: HL-60(TB) leukemia
93.7 µM: RPMI-8226 leukemia
not listed: U251 CNS | A498 renal | HCT-15 colon | SK-MEL-2 melanoma
> 100 µM: all other assays above

O=C1CCN=C(NC(=O)C(F)(F)F)N1CCc1c[nH]c2ccccc12
not listed: SNB-75 CNS | SR leukemia
> 100 µM: all other assays above

COc1c(C(=O)/C(=N/Nc2cccc(Cl)c2)C(C)=O)c(O)c(OC)c2occc12
88.9 µM: T-47D breast
not listed: OVCAR-4 ovarian | A498 renal
> 100 µM: all other assays above

CC(=O)N(CN1C(=O)CCC1C(=O)O)c1ccc(C)cc1 (configuration not stated)
not listed: RXF 393 renal | SR leukemia
> 100 µM: all other assays above
